{"source": "patent EP2787958B1", "about": "“CHELIDONIUM MAJUS EXTRACTS AND THEIR USE IN THE TREATMENT OF SKIN DISORDERS AND PROMOTION OF SKIN REGENERATION” (priority 2011, dated 2013)", "key": {"HDF cells [1]": {"system": "HDF cells", "assay": "Evaluation of cell proliferation (counting of Sirius Red stained cells in photographs)", "conditions": "for No. of cells from photo ± SD: 24 hours"}, "HDF cells [2]": {"system": "HDF cells", "assay": "Summary of uses and toxic effects deduced from the cell assays (Table 1)", "assay_type": "cell-based, Human", "experimental": "Antiradical (skin protective): this is deduced from the free radical scavenger effects.\nRevitalizing: this is deduced from the increased mitochondrial dehydrogenase effect.\nCytoprotective, with regard to oxidative damage (antioxidant, anti-inflammatory and anti-ageing): this is deduced from antagonising the stimulation of IL-1β and/or IL-6 induced by 100 µM H2O2 and from the absence of changes in cell morphology similar to the ones due to cell senescence.\nWound healing: this is deduced from the effect of inhibiting the production of IL-1β and by the effect of stimulating cell proliferation under standard growth conditions.\nCytotoxicity: this is deduced from the effect of reducing mitochondrial dehydrogenase activity or from the presence of morphologies characteristic of cell senescence.\nIrritation: this is deduced from the effect of increased production of IL-6 and/or IL-1β under standard growth conditions.\nSaid uses in the fields of medicine and cosmetics or the toxic effects of the substances of the invention at a given dosage, for 24 hours, are summarized in Table 1 below."}, "interleukin 1β (IL-1β)": {"system": "interleukin 1β (IL-1β)", "assay": "Inflammatory cytokines in cell supernatant (Mosaic ELISA microarray): IL-1β", "assay_type": "cell-based, Human", "conditions": "for IL-1β ng/(ml* No. of cells from photo) ± SD: 24 hours; for IL-1β production (effect in words): 1-10 µM", "experimental": "(§1) The inflammatory cytokines, CD40 ligand (CD40L), interferon γ (INF-γ), interleukin 1α (IL-1α), interleukin 1β (IL-1β), interleukin 6 (IL-6), interleukin 8 (IL-8), interleukin 17 (IL-17) and tumour necrosis factor α (TNF-α) were determined qualitatively and quantitatively. Each measurement was performed in duplicate using a Mosaic™ ELISA protein microarray assay system from R&D System in accordance with the supplier's instructions. Furthermore, with the aim of obtaining a correlation model between light signal intensity and cytokine concentration, a calibration curve using 6 concentrations was performed for each of them. Analysis of the data was performed using the dedicated Q-View™ Imager software package from Quansys Biosciences"}, "[3]": {"system": "Human dermal fibroblasts (HDF)", "assay": "Mitochondrial dehydrogenase activity (WST-1 formazan assay) in HDF cells", "conditions": "for Revitalizing agent: 24 hours; for activity at 1 µM / activity at 10 µM: Homo sapiens, Fibroblast, read-out: % mitochondrial dehydrogenase activity ± SD"}, "[4]": {"system": "collagen produced by HDF cells", "assay": "Quantity of collagen produced by the cells (elution of Sirius Red)", "conditions": "1-10 µM (1 µM and 10 µM)"}, "interleukin 6 (IL-6)": {"system": "interleukin 6 (IL-6)", "assay": "Inflammatory cytokines in cell supernatant (Mosaic ELISA microarray): IL-6", "assay_type": "cell-based, Human", "conditions": "for IL-6 ng/(ml* No. of cells from photo) ± SD: 24 hours; for IL-6 production (effect in words): 1-10 µM", "experimental": "as §1"}, "[5]": {"assay": "Anti-radical activity (decay of the DPPH radical)", "assay_type": "biochemical", "conditions": "for Anti-radical (skin protective): 24 hours", "experimental": "With regard to assays aimed at evaluating anti-radical activity, a chemical test was used where the decay of the diphenylpicrylhydrazyl (DPPH) radical is assessed in the absence or in the presence of the test substances. Indeed, the DPPH radical is used to test the ability of substances to act as free radical scavengers. DPPH in solution has a purple colour with a maximum absorbance peak at 517 nm which changes to yellow-colourless when this radical extracts a hydrogen atom from a radical scavenger to give rise to the reduced form DPPH-H. The assay has been conducted in quadruplicate in 96 well microplates (SARSTEDT Tissue Culture Plate 96-well flat bottom cell+). 50 µl of an ethanol solution of the test substance at 2X concentration and then 50 µl of a 200 µM solution of DPPH (MW 168,18, Aldrich 2,2-di(4-tert-octylphenyl)-1-picrylhydrazyl, free radical Lot# MKBF7574V Cat N° 257621-100 mg) have been added to each well of the microplate. A positive control consisting of 0.1 mM vitamin C and a negative control consisting of ethanol alone were included in each microplate. After 30 minutes from the addition of DPPH, photographs of the plates were taken (Canon PowerShot A610 5.0 Mpixels) and read spectrophotometrically at 530 nm.\nBased on the analysis of the results reported in Table 9, some substances were selected for further characterisation of their anti-radical activity. For the selected substances, dose-activity curves were obtained and the IC50 value were computed using a non-linear regression model with the Hill equation at variable slope. Such substances had been selected due to both their anti-radical potential and the easiness of their isolation/production. The selection of substances was made in view of cosmetics applications. Moreover their activity on human dermal fibroblasts (HDF) is expected to be useful also for the development of dermatological medications. The selected substances are discussed below."}, "[6]": {"conditions": "Dose 1 µm (coptisine: 1 pm [sic]), 24 hours"}, "[7]": {"conditions": "Dose 1 µm (coptisine: 1 pm [sic])"}}, "note": "Where two headings read alike, the source gives them in different places.", "data": [{"smiles": "c1cc2c(c3c1C[C@H]1c4cc5c(cc4CCN1C3)OCO5)OCO2", "note": "[stylopine]", "values": [{"measurement": "cell proliferation (effect in words)", "setting": "HDF cells [1]; 1 µM", "value": "tendency to stimulate cell proliferation"}, {"measurement": "No. of cells from photo ± SD", "setting": "HDF cells [1]; 1 µM, 34 ng/ml TGF-β1", "value": "237±19"}, {"measurement": "No. of cells from photo ± SD", "setting": "HDF cells [1]; 1 µM, 100 µM H2O2", "value": "240±12"}, {"measurement": "No. of cells from photo ± SD", "setting": "HDF cells [1]; 1 µM, Standard conditions", "value": "234± 7"}, {"measurement": "No. of cells from photo ± SD", "setting": "HDF cells [1]; 10 µM, 34 ng/ml TGF-β1", "value": "210±17"}, {"measurement": "No. of cells from photo ± SD", "setting": "HDF cells [1]; 10 µM, 100 µM H2O2", "value": "249±8"}, {"measurement": "No. of cells from photo ± SD", "setting": "HDF cells [1]; 10 µM, Standard conditions", "value": "183±12"}, {"measurement": "Cytotoxic", "setting": "HDF cells [2]", "value": "No"}, {"measurement": "Irritant", "setting": "HDF cells [2]", "value": "No"}, {"measurement": "Anti-fibrotic (prevention of scar formation, also from acne)", "setting": "HDF cells [2]; [6]", "value": "Yes (↓collagen, ↓IL-6, ↓IL-1β)"}, {"measurement": "Cytoprotective (antioxidant, anti-inflammatory and anti-ageing; useful also in the treatment of acne)", "setting": "HDF cells [2]; [6]", "value": "Yes (↓IL-6, ↓IL-1β)"}, {"measurement": "Wound-healing", "setting": "HDF cells [2]; [6]", "value": "Yes (↑profil)"}, {"measurement": "Anti-fibrotic (prevention of scar formation, also from acne)", "setting": "HDF cells [2]; Dose 10 µm, 24 hours", "value": "Yes (↓collagen, ↓IL-6. ↓IL-1β)"}, {"measurement": "Cytoprotective (antioxidant, anti-inflammatory and anti-ageing; useful also in the treatment of acne)", "setting": "HDF cells [2]; Dose 10 µm, 24 hours", "value": "Yes (↓IL-6, ↓IL-1β)"}, {"measurement": "Cytotoxic", "setting": "HDF cells [2]; Dose 10 µm, 24 hours", "value": "No"}, {"measurement": "Irritant", "setting": "HDF cells [2]; Dose 10 µm, 24 hours", "value": "No"}, {"measurement": "Wound-healing", "setting": "HDF cells [2]; Dose 10 µm, 24 hours", "value": "No"}, {"measurement": "concentrations at which no toxic (cytotoxic and irritant) effects are shown", "setting": "HDF cells [2]; exposure for 24 hours", "value": "less than or equal to 10 µM"}, {"measurement": "IL-1β ng/(ml* No. of cells from photo) ± SD", "setting": "interleukin 1β (IL-1β); 1 µM, 34 ng/ml TGF-β1", "value": "97±3 ng/(ml* No. of cells from photo)"}, {"measurement": "IL-1β ng/(ml* No. of cells from photo) ± SD", "setting": "interleukin 1β (IL-1β); 1 µM, 100 µM H2O2", "value": "100±4 ng/(ml* No. of cells from photo)"}, {"measurement": "IL-1β ng/(ml* No. of cells from photo) ± SD", "setting": "interleukin 1β (IL-1β); 1 µM, Standard conditions", "value": "159±10 ng/(ml* No. of cells from photo)"}, {"measurement": "IL-1β ng/(ml* No. of cells from photo) ± SD", "setting": "interleukin 1β (IL-1β); 10 µM, 34 ng/ml TGF-β1", "value": "109±14 ng/(ml* No. of cells from photo)"}, {"measurement": "IL-1β ng/(ml* No. of cells from photo) ± SD", "setting": "interleukin 1β (IL-1β); 10 µM, 100 µM H2O2", "value": "88±10 ng/(ml* No. of cells from photo)"}, {"measurement": "IL-1β ng/(ml* No. of cells from photo) ± SD", "setting": "interleukin 1β (IL-1β); 10 µM, Standard conditions", "value": "186±7 ng/(ml* No. of cells from photo)"}, {"measurement": "IL-1β production (effect in words)", "setting": "interleukin 1β (IL-1β); 34 ng/ml TGF-β1", "value": "antagonizes the production of IL-1β"}, {"measurement": "IL-1β production (effect in words)", "setting": "interleukin 1β (IL-1β); 100 µM H2O2", "value": "antagonizes the production of IL-1β"}, {"measurement": "IL-1β production (effect in words)", "setting": "interleukin 1β (IL-1β); standard conditions", "value": "inhibits the production of IL-1β"}, {"measurement": "concentrations below which no significant effects on mitochondrial dehydrogenase activity are shown", "setting": "[3]", "value": "below 1 µM"}, {"measurement": "mitochondrial dehydrogenase activity (effect in words)", "setting": "[3]; 10 µM, exposure time 42 h", "value": "increased with respect to the control"}, {"measurement": "mitochondrial dehydrogenase activity (effect in words)", "setting": "[3]; 100 µM", "value": "less marked stimulation of mitochondrial dehydrogenase activity"}, {"measurement": "Revitalizing agent", "setting": "[3]; [7]", "value": "Yes**"}, {"measurement": "Revitalizing agent", "setting": "[3]; Dose 10 µm", "value": "Yes"}, {"measurement": "activity at 1 µM", "setting": "[3]; 18 h", "value": "105 ± 9.5", "unit": "%"}, {"measurement": "activity at 10 µM", "setting": "[3]; 18 h", "value": "107 ± 3", "unit": "%"}, {"measurement": "activity at 1 µM", "setting": "[3]; 42 h", "value": "100 ± 15.8", "unit": "%"}, {"measurement": "activity at 10 µM", "setting": "[3]; 42 h", "value": "151 ± 12.8", "unit": "%"}, {"measurement": "activity at 1 µM", "setting": "[3]; 46 h", "value": 95.7, "unit": "%"}, {"measurement": "activity at 10 µM", "setting": "[3]; 46 h", "value": "138 ± 23.9", "unit": "%"}, {"measurement": "mitochondrial dehydrogenase activity (effect in words)", "setting": "[3]; between 1 and 100 µM, exposure time 18 h", "value": "non-significant tendency to stimulate mitochondrial dehydrogenase activity in a dose-dependent manner"}, {"measurement": "mitochondrial dehydrogenase activity (effect in words)", "setting": "[3]; fibroblast cells, higher doses", "value": "inhibit mitochondrial dehydrogenase activity"}, {"measurement": "mitochondrial dehydrogenase activity (effect in words)", "setting": "[3]; fibroblast cells, low dosage", "value": "stimulate mitochondrial dehydrogenase activity"}, {"measurement": "collagen production (effect in words)", "setting": "[4]; 34 ng/ml TGF-β1", "value": "antagonizes the stimulation of collagen induced by 34 ng/ml TGF-β1"}, {"measurement": "collagen production (effect in words)", "setting": "[4]; 100 µM H2O2", "value": "tendency to inhibit collagen production"}, {"measurement": "IL-6 ng/(ml* No. of cells from photo) ± SD", "setting": "interleukin 6 (IL-6); 1 µM, 34 ng/ml TGF-β1", "value": "447±8 ng/(ml* No. of cells from photo)"}, {"measurement": "IL-6 ng/(ml* No. of cells from photo) ± SD", "setting": "interleukin 6 (IL-6); 1 µM, 100 µM H2O2", "value": "583±25 ng/(ml* No. of cells from photo)"}, {"measurement": "IL-6 ng/(ml* No. of cells from photo) ± SD", "setting": "interleukin 6 (IL-6); 1 µM, Standard conditions", "value": "868±62 ng/(ml* No. of cells from photo)"}, {"measurement": "IL-6 ng/(ml* No. of cells from photo) ± SD", "setting": "interleukin 6 (IL-6); 10 µM, 34 ng/ml TGF-β1", "value": "528±33 ng/(ml* No. of cells from photo)"}, {"measurement": "IL-6 ng/(ml* No. of cells from photo) ± SD", "setting": "interleukin 6 (IL-6); 10 µM, 100 µM H2O2", "value": "449±2 ng/(ml* No. of cells from photo)"}, {"measurement": "IL-6 ng/(ml* No. of cells from photo) ± SD", "setting": "interleukin 6 (IL-6); 10 µM, Standard conditions", "value": "961±38 ng/(ml* No. of cells from photo)"}, {"measurement": "IL-6 production (effect in words)", "setting": "interleukin 6 (IL-6); 34 ng/ml TGF-β1", "value": "antagonizes the production of IL-6"}, {"measurement": "IL-6 production (effect in words)", "setting": "interleukin 6 (IL-6); 100 µM H2O2", "value": "antagonizes the production of IL-6"}, {"measurement": "IL-6 production (effect in words)", "setting": "interleukin 6 (IL-6); standard conditions", "value": "inhibits the production of IL-6"}, {"measurement": "% DPPH activity", "setting": "[5]; 1 mM, 30 minutes", "value": 113, "unit": "%"}, {"measurement": "Anti-radical (skin protective)", "setting": "[5]; [7]", "value": "No"}, {"measurement": "Anti-radical (skin protective)", "setting": "[5]; Dose 10 µm", "value": "No"}]}]}
